Measured values taken from ChEMBL document CHEMBL5724806, “Unraveling interindividual differences and functional consequences of gut microbial metabolism of immunosuppressants” (2024).

Experiments:
Format in all cases: ADME
[1] = The drug is tested on Lactobacillus fermentum strain: DSM20052 for biotransformation under microaerobic condition. The drug concentrations were measured over 6 timepoints collected between 0 and 12 hours of incubation by liquid-chromatography-coupled mass spectrometry (LC–MS); parameters: dose 5 uM, timepoint 0, 1.5, 3, 6, 9, 12 hours; settings: limosilactobacillus fermentum, 5 µM
[2] = (§1) The drug is tested on the gut metagenome community of T-03 with ENA study accession number: PRJEB31790 for biotransformation under anaerobic condition. The drug concentrations were measured over 7 timepoints collected between 0 and 12 hours of incubation by liquid-chromatography-coupled mass spectrometry (LC–MS); parameters: dose 5 uM, timepoint 0, 0.75, 1.5, 3, 6, 9, 12 hours; settings: 5 µM
[3] = The drug is tested on Actinomyces naeslundi strain: DSM43013 for biotransformation under anaerobic condition. The drug concentrations were measured over 6 timepoints collected between 0 and 12 hours of incubation by liquid-chromatography-coupled mass spectrometry (LC–MS); parameters: dose 5 uM, timepoint 0, 1.5, 3, 6, 9, 12 hours; settings: actinomyces naeslundii, 5 µM
[4] = The drug is tested on Eubacterium hallii strain: DSM3353 for biotransformation under anaerobic condition. The drug concentrations were measured over 6 timepoints collected between 0 and 12 hours of incubation by liquid-chromatography-coupled mass spectrometry (LC–MS); parameters: dose 5 uM, timepoint 0, 1.5, 3, 6, 9, 12 hours; settings: anaerobutyricum hallii, 5 µM
[5] = The drug is tested on Bifidobacterium longum strain: DSM20088 for biotransformation under microaerobic condition. The drug concentrations were measured over 6 timepoints collected between 0 and 12 hours of incubation by liquid-chromatography-coupled mass spectrometry (LC–MS); parameters: dose 5 uM, timepoint 0, 1.5, 3, 6, 9, 12 hours; settings: 5 µM
[6] = The drug is tested on Bacteroides caccae strain: DSM19024 for biotransformation under anaerobic condition. The drug concentrations were measured over 6 timepoints collected between 0 and 12 hours of incubation by liquid-chromatography-coupled mass spectrometry (LC–MS); parameters: dose 5 uM, timepoint 0, 1.5, 3, 6, 9, 12 hours; settings: 5 µM
[7] = as §1, with “A-10” for “T-03”, “microaerobic” for “anaerobic”; parameters: dose 5 uM, timepoint 0, 0.75, 1.5, 3, 6, 9, 12 hours; settings: 5 µM
[8] = The drug is tested on Enterococcus faecalis strain: ATCC29212 for biotransformation under microaerobic condition. The drug concentrations were measured over 6 timepoints collected between 0 and 12 hours of incubation by liquid-chromatography-coupled mass spectrometry (LC–MS); parameters: dose 5 uM, timepoint 0, 1.5, 3, 6, 9, 12 hours; settings: 5 µM
[9] = The drug is tested on Clostridium bolteae strain: DSM15670 for biotransformation under anaerobic condition. The drug concentrations were measured over 6 timepoints collected between 0 and 12 hours of incubation by liquid-chromatography-coupled mass spectrometry (LC–MS); parameters: dose 5 uM, timepoint 0, 1.5, 3, 6, 9, 12 hours; settings: enterocloster bolteae, 5 µM
[10] = as §1, with “A-03” for “T-03”; parameters: dose 5 uM, timepoint 0, 0.75, 1.5, 3, 6, 9, 12 hours; settings: 5 µM
[11] = The drug is tested on Parabacteroides merdae strain: DSM19495 for biotransformation under anaerobic condition. The drug concentrations were measured over 6 timepoints collected between 0 and 12 hours of incubation by liquid-chromatography-coupled mass spectrometry (LC–MS); parameters: dose 5 uM, timepoint 0, 1.5, 3, 6, 9, 12 hours; settings: 5 µM
[12] = The drug is tested on Streptococcus sanguinis strain: DSM20567 for biotransformation under anaerobic condition. The drug concentrations were measured over 6 timepoints collected between 0 and 12 hours of incubation by liquid-chromatography-coupled mass spectrometry (LC–MS); parameters: dose 5 uM, timepoint 0, 1.5, 3, 6, 9, 12 hours; settings: 5 µM
[13] = The drug is tested on Streptococcus anginosus strain: DSM20563 for biotransformation under anaerobic condition. The drug concentrations were measured over 6 timepoints collected between 0 and 12 hours of incubation by liquid-chromatography-coupled mass spectrometry (LC–MS); parameters: dose 5 uM, timepoint 0, 1.5, 3, 6, 9, 12 hours; settings: 5 µM
[14] = as §1, with “A-06” for “T-03”, “microaerobic” for “anaerobic”; parameters: dose 5 uM, timepoint 0, 0.75, 1.5, 3, 6, 9, 12 hours; settings: 5 µM
[15] = The drug is tested on Faecalibacterium prausnitzii strain: DSM17677 for biotransformation under anaerobic condition. The drug concentrations were measured over 6 timepoints collected between 0 and 12 hours of incubation by liquid-chromatography-coupled mass spectrometry (LC–MS); parameters: dose 5 uM, timepoint 0, 1.5, 3, 6, 9, 12 hours; settings: faecalibacterium duncaniae, 5 µM
[16] = The drug is tested on Actinomyces graevenitzii strain: DSM15540 for biotransformation under microaerobic condition. The drug concentrations were measured over 6 timepoints collected between 0 and 12 hours of incubation by liquid-chromatography-coupled mass spectrometry (LC–MS); parameters: dose 5 uM, timepoint 0, 1.5, 3, 6, 9, 12 hours; settings: 5 µM
[17] = The drug is tested on Streptococcus mitis strain: DSM12643 for biotransformation under microaerobic condition. The drug concentrations were measured over 6 timepoints collected between 0 and 12 hours of incubation by liquid-chromatography-coupled mass spectrometry (LC–MS); parameters: dose 5 uM, timepoint 0, 1.5, 3, 6, 9, 12 hours; settings: 5 µM
[18] = The drug is tested on Parabacteroides distasonis strain: DSM20701 for biotransformation under anaerobic condition. The drug concentrations were measured over 6 timepoints collected between 0 and 12 hours of incubation by liquid-chromatography-coupled mass spectrometry (LC–MS); parameters: dose 5 uM, timepoint 0, 1.5, 3, 6, 9, 12 hours; settings: 5 µM
[19] = The drug is tested on Streptococcus mitis strain: DSM12643 for biotransformation under anaerobic condition. The drug concentrations were measured over 6 timepoints collected between 0 and 12 hours of incubation by liquid-chromatography-coupled mass spectrometry (LC–MS); parameters: dose 5 uM, timepoint 0, 1.5, 3, 6, 9, 12 hours; settings: 5 µM
[20] = as §1, with “A-09” for “T-03”; parameters: dose 5 uM, timepoint 0, 0.75, 1.5, 3, 6, 9, 12 hours; settings: 5 µM
[21] = The drug is tested on Bacteroides uniformis strain: DSM6597 for biotransformation under anaerobic condition. The drug concentrations were measured over 6 timepoints collected between 0 and 12 hours of incubation by liquid-chromatography-coupled mass spectrometry (LC–MS); parameters: dose 5 uM, timepoint 0, 1.5, 3, 6, 9, 12 hours; settings: 5 µM
[22] = The drug is tested on Odoribacter splanchnicus strain: DSM20712 for biotransformation under anaerobic condition. The drug concentrations were measured over 6 timepoints collected between 0 and 12 hours of incubation by liquid-chromatography-coupled mass spectrometry (LC–MS); parameters: dose 5 uM, timepoint 0, 1.5, 3, 6, 9, 12 hours; settings: 5 µM
[23] = The drug is tested on Lactobacillus gasseri strain: DSM20243 for biotransformation under microaerobic condition. The drug concentrations were measured over 6 timepoints collected between 0 and 12 hours of incubation by liquid-chromatography-coupled mass spectrometry (LC–MS); parameters: dose 5 uM, timepoint 0, 1.5, 3, 6, 9, 12 hours; settings: 5 µM
[24] = The drug is tested on Blautia hansenii strain: DSM20583 for biotransformation under anaerobic condition. The drug concentrations were measured over 6 timepoints collected between 0 and 12 hours of incubation by liquid-chromatography-coupled mass spectrometry (LC–MS); parameters: dose 5 uM, timepoint 0, 1.5, 3, 6, 9, 12 hours; settings: 5 µM
[25] = The drug is tested on Escherichia coli strain: DSM27469 for biotransformation under microaerobic condition. The drug concentrations were measured over 6 timepoints collected between 0 and 12 hours of incubation by liquid-chromatography-coupled mass spectrometry (LC–MS); parameters: dose 5 uM, timepoint 0, 1.5, 3, 6, 9, 12 hours; settings: 5 µM
[26] = The drug is tested on Dorea formicigenerans strain: DSM3992 for biotransformation under anaerobic condition. The drug concentrations were measured over 6 timepoints collected between 0 and 12 hours of incubation by liquid-chromatography-coupled mass spectrometry (LC–MS); parameters: dose 5 uM, timepoint 0, 1.5, 3, 6, 9, 12 hours; settings: 5 µM
[27] = The drug is tested on Roseburia intestinalis strain: DSM14610 for biotransformation under anaerobic condition. The drug concentrations were measured over 6 timepoints collected between 0 and 12 hours of incubation by liquid-chromatography-coupled mass spectrometry (LC–MS); parameters: dose 5 uM, timepoint 0, 1.5, 3, 6, 9, 12 hours; settings: 5 µM
[28] = The drug is tested on Coprococcus comes strain: ATCC27758 for biotransformation under anaerobic condition. The drug concentrations were measured over 6 timepoints collected between 0 and 12 hours of incubation by liquid-chromatography-coupled mass spectrometry (LC–MS); parameters: dose 5 uM, timepoint 0, 1.5, 3, 6, 9, 12 hours; settings: 5 µM

Bacterial Biotransformation [1] | Bacterial Biotransformation [2] | Bacterial Biotransformation [3] | Bacterial Biotransformation [4] | Bacterial Biotransformation [5] | Bacterial Biotransformation [6] | Bacterial Biotransformation [7] | Bacterial Biotransformation [8] | Bacterial Biotransformation [9] | Bacterial Biotransformation [10] | Bacterial Biotransformation [11] | Bacterial Biotransformation [12] | Bacterial Biotransformation [13] | Bacterial Biotransformation [14] | Bacterial Biotransformation [15] | Bacterial Biotransformation [16] | Bacterial Biotransformation [17] | Bacterial Biotransformation [18] | Bacterial Biotransformation [19] | Bacterial Biotransformation [20] | Structure (SMILES) | also measured
Compound NOT metabolized | Compound NOT metabolized | Compound NOT metabolized | Compound NOT metabolized | Compound NOT metabolized | Compound NOT metabolized | Compound NOT metabolized | Compound metabolized | Compound NOT metabolized | Compound NOT metabolized | Compound NOT metabolized | Compound NOT metabolized | Compound NOT metabolized | Compound NOT metabolized | Compound NOT metabolized | Compound NOT metabolized | Compound NOT metabolized | Compound NOT metabolized | Compound NOT metabolized | Compound NOT metabolized | CCC(C)(C)C(=O)O[C@H]1C[C@@H](C)C=C2C=C[C@H](C)[C@H](CC[C@@H]3C[C@@H](O)CC(=O)O3)[C@H]21 [SIMVASTATIN] | Bacterial Biotransformation [21]: Compound NOT metabolized; Bacterial Biotransformation [22]: Compound NOT metabolized; Bacterial Biotransformation [23]: Compound NOT metabolized; Bacterial Biotransformation [24]: Compound NOT metabolized; Bacterial Biotransformation [25]: Compound NOT metabolized; Bacterial Biotransformation [26]: Compound NOT metabolized; Bacterial Biotransformation [27]: Compound NOT metabolized; Bacterial Biotransformation [28]: Compound metabolized
Compound NOT metabolized | Compound NOT metabolized | Compound metabolized | Compound metabolized | Compound NOT metabolized | Compound metabolized | Compound NOT metabolized | Compound metabolized | Compound metabolized | Compound metabolized | Compound metabolized | Compound metabolized | Compound NOT metabolized | Compound metabolized | Compound NOT metabolized | Compound metabolized | Compound NOT metabolized | Compound metabolized | Compound NOT metabolized | Compound metabolized | CO[C@H]1C[C@@H]2CC[C@@H](C)[C@@](O)(O2)C(=O)C(=O)N2CCCC[C@H]2C(=O)O[C@H]([C@H](C)C[C@@H]2CC[C@@H](O)[C@H](OC)C2)CC(=O)[C@H](C)/C=C(\C)[C@@H](O)[C@@H](OC)C(=O)[C@H](C)C[C@H](C)/C=C/C=C/C=C/1C [SIROLIMUS] | Bacterial Biotransformation [21]: Compound metabolized; Bacterial Biotransformation [22]: Compound NOT metabolized; Bacterial Biotransformation [23]: Compound NOT metabolized; Bacterial Biotransformation [24]: Compound metabolized; Bacterial Biotransformation [25]: Compound NOT metabolized; Bacterial Biotransformation [26]: Compound metabolized; Bacterial Biotransformation [27]: Compound metabolized; Bacterial Biotransformation [28]: Compound metabolized
Compound NOT metabolized | Compound NOT metabolized | Compound NOT metabolized | Compound metabolized | Compound NOT metabolized | Compound NOT metabolized | Compound metabolized | Compound NOT metabolized | Compound NOT metabolized | Compound NOT metabolized | Compound NOT metabolized | Compound NOT metabolized | Compound NOT metabolized | Compound metabolized | Compound NOT metabolized | Compound NOT metabolized | Compound NOT metabolized | Compound NOT metabolized | Compound NOT metabolized | Compound metabolized | C=CC[C@@H]1/C=C(\C)C[C@H](C)C[C@H](OC)[C@H]2O[C@@](O)(C(=O)C(=O)N3CCCC[C@H]3C(=O)O[C@H](/C(C)=C/[C@@H]3CC[C@@H](O)[C@H](OC)C3)[C@H](C)[C@@H](O)CC1=O)[C@H](C)C[C@@H]2OC.O [TACROLIMUS] | Bacterial Biotransformation [21]: Compound metabolized; Bacterial Biotransformation [22]: Compound NOT metabolized; Bacterial Biotransformation [23]: Compound NOT metabolized; Bacterial Biotransformation [24]: Compound metabolized; Bacterial Biotransformation [25]: Compound NOT metabolized; Bacterial Biotransformation [26]: Compound metabolized; Bacterial Biotransformation [27]: Compound metabolized; Bacterial Biotransformation [28]: Compound metabolized
